# Measurements taken from ChEMBL document CHEMBL1201862, “PubChem BioAssay data set” (2004).
#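 Assay format: 96-well plates, 48-hour exposure. GI50 = concentration required for 50% inhibition of growth.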 Active and inactive are the calls of the source. Cut-off read from the data, not from the text of the source: active = GI50 up to about 1.1 µM and inactive = higher.
# Tests used:
# Assay in all cases: NCI tumour cell line growth inhibition, 48 h
# [1] = test system: K562
# [2] = test system: SNB-75
# [3] = test system: A498
# [4] = test system: MOLT-4
# [5] = test system: OVCAR-8
# [6] = test system: DLD-1
# [7] = test system: EKVX
# [8] = test system: SF-268
# [9] = test system: UO-31
# [10] = test system: COLO 205
# [11] = test system: SF-295
# [12] = test system: DMS-273
# [13] = test system: LXFL 529
# [14] = test system: A549
# [15] = test system: SK-MEL-5
# [16] = test system: SF-539
# [17] = test system: SW-620
# [18] = test system: M19-MEL
# [19] = test system: SNB-78
# [20] = test system: HOP-18
# [21] = test system: HOP-92
# [22] = test system: SK-OV-3
# [23] = test system: HOP-62
# [24] = test system: OVCAR-4
# [25] = test system: RXF 631
# [26] = test system: NCI-H226
# [27] = test system: OVCAR-5
# [28] = test system: HL-60
# [29] = test system: TK-10
# [30] = test system: OVCAR-3
# [31] = test system: IGROV-1
# [32] = test system: Malme-3M
# [33] = test system: UACC-62
# [34] = test system: SN12C
# [35] = test system: SR
# [36] = test system: ACHN
# [37] = test system: CAKI-1
# [38] = test system: DMS-114
# [39] = test system: NCI-H23
# [40] = test system: NCI-H522
# [41] = test system: RPMI-8226
# [42] = test system: HCT-15
# [43] = test system: HCC 2998
# [44] = test system: HT-29
# [45] = test system: UACC-257
# [46] = test system: SK-MEL-2
# [47] = test system: KM-20L2
# [48] = test system: KM12
# [49] = test system: SK-MEL-28
# [50] = test system: HCT-116
# [51] = test system: M14
# [52] = test system: U-251
# [53] = test system: XF498
# [54] = test system: LOX IMVI
# [55] = test system: 786-0
# [56] = test system: SNB-19
# [57] = test system: RXF 393
# [58] = test system: CCRF-CEM
# [59] = test system: NCI-H460
structure (smiles),measurement,setting,value
Cc1ccc(NP(=O)(Oc2ccccc2)N(CCCl)CCCl)cc1 (stereo not drawn),GI50,[1],> 100 µM (inactive)
same,GI50,[2],> 100 µM (inactive)
same,GI50,[3],58.7 µM (inactive)
same,GI50,[4],9.04 µM (inactive)
same,GI50,[5],99.1 µM (inactive)
same,GI50,[6],23.9 µM (inactive)
same,GI50,[7],> 100 µM (inactive)
same,GI50,[8],80.5 µM (inactive)
same,GI50,[9],76.4 µM (inactive)
same,GI50,[10],31.6 µM (inactive)
same,GI50,[11],67 µM (inactive)
same,GI50,[12],> 100 µM (inactive)
same,GI50,[13],99.3 µM (inactive)
same,GI50,[14],48.2 µM (inactive)
same,GI50,[15],74.5 µM (inactive)
same,GI50,[16],> 100 µM (inactive)
same,GI50,[17],> 100 µM (inactive)
same,GI50,[18],28.7 µM (inactive)
same,GI50,[19],> 100 µM (inactive)
same,GI50,[20],> 100 µM (inactive)
same,GI50,[21],96.4 µM (inactive)
same,GI50,[22],> 100 µM (inactive)
same,GI50,[23],> 100 µM (inactive)
same,GI50,[24],51.3 µM (inactive)
same,GI50,[25],10 µM (inactive)
same,GI50,[26],39.6 µM (inactive)
same,GI50,[27],39.3 µM (inactive)
same,GI50,[28],44 µM (inactive)
same,GI50,[29],> 100 µM (inactive)
same,GI50,[30],54.6 µM (inactive)
same,GI50,[31],90.8 µM (inactive)
same,GI50,[32],92.7 µM (inactive)
same,GI50,[33],> 100 µM (inactive)
same,GI50,[34],91 µM (inactive)
same,GI50,[35],95.5 µM (inactive)
same,GI50,[36],34.6 µM (inactive)
same,GI50,[37],> 100 µM (inactive)
same,GI50,[38],34.4 µM (inactive)
same,GI50,[39],61.5 µM (inactive)
same,GI50,[40],> 100 µM (inactive)
same,GI50,[41],5.5 µM (inactive)
same,GI50,[42],45.2 µM
same,GI50,[43],3.56 µM (inactive)
same,GI50,[44],26.1 µM (inactive)
same,GI50,[45],28.6 µM (inactive)
same,GI50,[46],41.6 µM (inactive)
same,GI50,[47],76.7 µM (inactive)
same,GI50,[48],91 µM (inactive)
same,GI50,[49],> 100 µM (inactive)
same,GI50,[50],21.2 µM (inactive)
same,GI50,[51],> 100 µM (inactive)
same,GI50,[52],> 100 µM (inactive)
O=c1[nH]c(=O)n(C2OC3COC2C3O)cc1F (stereo not drawn),GI50,[1],> 100 µM (inactive)
same,GI50,[2],> 100 µM (inactive)
same,GI50,[53],> 100 µM (inactive)
same,GI50,[4],> 100 µM (inactive)
same,GI50,[54],> 100 µM (inactive)
same,GI50,[5],> 100 µM (inactive)
same,GI50,[6],> 100 µM (inactive)
same,GI50,[7],> 100 µM (inactive)
same,GI50,[8],> 100 µM (inactive)
same,GI50,[9],> 100 µM (inactive)
same,GI50,[10],> 100 µM (inactive)
same,GI50,[11],> 100 µM (inactive)
same,GI50,[12],> 100 µM (inactive)
same,GI50,[13],> 100 µM (inactive)
same,GI50,[14],> 100 µM (inactive)
same,GI50,[15],> 100 µM (inactive)
same,GI50,[17],> 100 µM (inactive)
same,GI50,[55],> 100 µM (inactive)
same,GI50,[19],> 100 µM (inactive)
same,GI50,[20],> 100 µM (inactive)
same,GI50,[21],29.8 µM (inactive)
same,GI50,[22],48.1 µM (inactive)
same,GI50,[23],> 100 µM (inactive)
same,GI50,[24],> 100 µM (inactive)
same,GI50,[25],> 100 µM (inactive)
same,GI50,[26],41.5 µM (inactive)
same,GI50,[56],> 100 µM (inactive)
same,GI50,[27],> 100 µM (inactive)
same,GI50,[28],> 100 µM (inactive)
same,GI50,[29],> 100 µM (inactive)
same,GI50,[30],> 100 µM (inactive)
same,GI50,[32],> 100 µM (inactive)
same,GI50,[34],> 100 µM (inactive)
same,GI50,[36],> 100 µM (inactive)
same,GI50,[37],> 100 µM (inactive)
same,GI50,[39],> 100 µM (inactive)
same,GI50,[40],> 100 µM (inactive)
same,GI50,[57],> 100 µM (inactive)
same,GI50,[41],> 100 µM (inactive)
same,GI50,[42],> 100 µM
same,GI50,[43],> 100 µM (inactive)
same,GI50,[44],> 100 µM (inactive)
same,GI50,[45],> 100 µM (inactive)
same,GI50,[46],> 100 µM (inactive)
same,GI50,[47],> 100 µM (inactive)
same,GI50,[58],> 100 µM (inactive)
same,GI50,[48],> 100 µM (inactive)
same,GI50,[49],> 100 µM (inactive)
same,GI50,[51],> 100 µM (inactive)
same,GI50,[52],> 100 µM (inactive)
same,GI50,[59],> 100 µM (inactive)
O=C1C2[C@@H](C(=O)N1c1ccc(Br)cc1)C13C(=CC2([N+](=O)[O-])[C@@H]2C(=O)N(c4ccc(Br)cc4)C(=O)[C@@H]21)c1ccccc1N3c1ccccc1 (stereo partly drawn),GI50,[1],> 100 µM (inactive)
same,GI50,[2],> 100 µM (inactive)
same,GI50,[53],39.3 µM (inactive)
same,GI50,[4],> 100 µM (inactive)
same,GI50,[54],> 100 µM (inactive)
same,GI50,[5],> 100 µM (inactive)
same,GI50,[6],> 100 µM (inactive)
same,GI50,[7],> 100 µM (inactive)
same,GI50,[8],11.6 µM (inactive)
same,GI50,[9],18.9 µM (inactive)
same,GI50,[10],25.8 µM (inactive)
same,GI50,[11],> 100 µM (inactive)
same,GI50,[14],> 100 µM (inactive)
same,GI50,[16],> 100 µM (inactive)
same,GI50,[17],> 100 µM (inactive)
same,GI50,[55],13.7 µM (inactive)
same,GI50,[18],> 100 µM (inactive)
same,GI50,[19],> 100 µM (inactive)
same,GI50,[20],> 100 µM (inactive)
same,GI50,[21],> 100 µM (inactive)
same,GI50,[25],> 100 µM (inactive)
same,GI50,[26],> 100 µM (inactive)
same,GI50,[56],> 100 µM (inactive)
same,GI50,[27],> 100 µM (inactive)
same,GI50,[28],> 100 µM (inactive)
same,GI50,[29],> 100 µM (inactive)
same,GI50,[30],> 100 µM (inactive)
same,GI50,[32],> 100 µM (inactive)
same,GI50,[34],> 100 µM (inactive)
same,GI50,[35],83 µM (inactive)
same,GI50,[36],> 100 µM (inactive)
same,GI50,[38],> 100 µM (inactive)
same,GI50,[39],> 100 µM (inactive)
same,GI50,[40],> 100 µM (inactive)
same,GI50,[57],> 100 µM (inactive)
same,GI50,[41],> 100 µM (inactive)
same,GI50,[42],> 100 µM
same,GI50,[43],> 100 µM (inactive)
same,GI50,[45],> 100 µM (inactive)
same,GI50,[46],> 100 µM (inactive)
same,GI50,[58],46.7 µM (inactive)
same,GI50,[48],> 100 µM (inactive)
same,GI50,[49],> 100 µM (inactive)
same,GI50,[51],> 100 µM (inactive)
same,GI50,[52],> 100 µM (inactive)
